Read-outs that look alike come from different tables or passages of the source. Ends that are not written are not given here. Peptide text beside a SMILES is read from it. * marks the point of attachment. Palmitoyl = CCCCCCCCCCCCCCCC(=O)*
How the values were obtained:
human GIP receptor = biological target: T1, human GIP receptor (Homo sapiens, UniProt P48546); experiment: cAMP accumulation assay (HitHunter cAMP XS) in transiently transfected COS-7 cells expressing the human GIP receptor; format: cell-based; details: for Emax at 10 µM: COS-7, read-out: Emax (10 μM), GIP receptor; for fold (fold change of native GIP), GIP receptor: EC50 relative to native GIP
T1 construct: host or cells: COS-7 (transient, calcium phosphate; pCMV-Script vector)
T1 sequence (P48546 22-466): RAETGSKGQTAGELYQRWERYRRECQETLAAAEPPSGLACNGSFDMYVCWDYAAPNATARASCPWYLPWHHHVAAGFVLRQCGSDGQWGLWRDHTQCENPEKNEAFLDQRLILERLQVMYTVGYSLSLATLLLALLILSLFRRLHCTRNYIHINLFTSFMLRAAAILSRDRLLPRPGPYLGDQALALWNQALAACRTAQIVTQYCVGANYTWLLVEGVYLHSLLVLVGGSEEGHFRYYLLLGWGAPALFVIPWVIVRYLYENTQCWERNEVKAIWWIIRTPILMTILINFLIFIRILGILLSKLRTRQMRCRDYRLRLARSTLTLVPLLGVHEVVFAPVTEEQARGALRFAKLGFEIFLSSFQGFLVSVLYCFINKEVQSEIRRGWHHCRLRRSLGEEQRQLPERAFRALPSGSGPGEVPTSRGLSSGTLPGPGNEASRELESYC
Method: (§1) The day after, the cells were washed twice with Hepes buffered saline (HBS) buffer and incubated with HBS and 1 mM 3-isobutyl-1-methylxanthine (IBMX) for 30 min at 37° C. Ligands were added and incubated for 30 min at 37° C. The HitHunter™ cAMP XS assay (DiscoveRx) was carried out according to the manufacturer's instructions.

human GLP-2 receptor = biological target: T2, human GLP-2 receptor (Homo sapiens, UniProt O95838); experiment: cAMP accumulation assay (HitHunter cAMP XS) in transiently transfected COS-7 cells expressing the human GLP-2 receptor; format: cell-based; details: for Emax at 10 µM: COS-7, read-out: Emax (10 μM), GLP-2 receptor; for fold (fold change of native GLP-2), GLP-2 receptor: EC50 relative to native GLP-2
T2 construct: host or cells: COS-7 (transient, calcium phosphate; pCMV-Script vector)
T2 sequence (O95838 1-553): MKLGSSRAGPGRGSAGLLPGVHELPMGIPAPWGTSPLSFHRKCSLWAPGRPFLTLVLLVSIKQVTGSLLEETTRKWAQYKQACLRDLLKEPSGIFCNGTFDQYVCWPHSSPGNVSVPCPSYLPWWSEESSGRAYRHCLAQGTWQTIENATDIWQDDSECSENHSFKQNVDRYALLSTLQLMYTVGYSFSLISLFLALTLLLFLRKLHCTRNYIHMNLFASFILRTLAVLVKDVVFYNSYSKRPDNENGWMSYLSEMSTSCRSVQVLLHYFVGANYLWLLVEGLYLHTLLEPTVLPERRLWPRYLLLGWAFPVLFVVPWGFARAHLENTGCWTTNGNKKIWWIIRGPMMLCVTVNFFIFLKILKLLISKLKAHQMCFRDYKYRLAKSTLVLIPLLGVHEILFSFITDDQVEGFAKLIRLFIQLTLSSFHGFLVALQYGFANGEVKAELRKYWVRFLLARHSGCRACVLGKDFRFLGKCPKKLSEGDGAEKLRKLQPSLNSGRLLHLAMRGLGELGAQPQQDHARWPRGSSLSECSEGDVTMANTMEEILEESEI
Method: as §1

[1] = logEC50, GLP-2 receptor, Table 1, cAMP, COS-7
[2] = logEC50, GIP receptor, Table 1, log value, cAMP, COS-7
[3] = logEC50, GIP receptor, Table 2, log value, cAMP, COS-7
[4] = logEC50, GLP-2 receptor, Table 2, cAMP, COS-7

Row | Compound | Emax at 10 µM (human GIP receptor) [%] | Emax at 10 µM (human GLP-2 receptor) [%] | fold (fold change of native GIP), GIP receptor (human GIP receptor; Table 2) [fold] | fold (fold change of native GLP-2), GLP-2 receptor (human GLP-2 receptor; Table 2) [fold] | fold (fold change of native GIP), GIP receptor (human GIP receptor; Table 1) [fold] | fold (fold change of native GLP-2), GLP-2 receptor (human GLP-2 receptor; Table 1) [fold] | further results
1 | HAEGTFISDYSTILDNLAARDFINWLIQTKGKK [Co-agonist 10] | 100 | 77 |  |  | 61 | 18 | EC50 (human GLP-2 receptor): 21.9 nM
2 | HAEGTFISDYSTILDNLAARDFVNWLLAQKITD [Co-agonist 9] | 100 | 67 |  |  | 36 | 103 | EC50 (human GIP receptor): 3.16 nM
3 | HAEGSFISDYSTILDNLAARDFINWLIQTKITD [Co-agonist 4] | 83 | 90 |  |  | 427 | 21 | EC50 (human GIP receptor; [2]): 38 nM; EC50 (human GLP-2 receptor; EC50(nM), GLP-2 receptor, Table 1, cAMP, COS-7): 25 nM; EC50 (human GLP-2 receptor; [1]): 25.7 nM
4 | HAEGTFISDYSIAMDKLAARDFINWLIQTKITD [Co-agonist 7] | 92 | 78 |  |  | 292 | 293 | EC50 (human GIP receptor): 25.7 nM
5 | HAEGTFISDYSTILDNLAARDFINWLIQTKITD [Co-agonist 1] |  |  |  |  | 337 | 82 | EC50 (human GIP receptor): 29.5 nM; Emax at 1 µM (human GIP receptor; COS-7, read-out: Emax, GIP receptor): 100%; Emax at 1 µM (human GLP-2 receptor; COS-7, read-out: Emax, GLP-2 receptor): 93%

Further lines, with some results ahead:

Row | Emax at 10 µM (human GIP receptor) [%] | Emax at 10 µM (human GLP-2 receptor) [%] | fold (fold change of native GIP), GIP receptor (human GIP receptor; Table 2) [fold] | fold (fold change of native GLP-2), GLP-2 receptor (human GLP-2 receptor; Table 2) [fold] | Compound | fold (fold change of native GIP), GIP receptor (human GIP receptor; Table 1) [fold] | fold (fold change of native GLP-2), GLP-2 receptor (human GLP-2 receptor; Table 1) [fold] | further results
6 | 95 | 88 |  |  | HADGTFISDYSTILDNLAARDFINWLIQTKIKD [Co-agonist 17] | 4.5 | 21 | EC50 (human GLP-2 receptor; [1]): 24.5 nM
7 | 83 | 70 |  |  | HAEGTFISDMNTILDNLAARDFINWLIQTKITD [Co-agonist 6] | 1933 | 50 | 
8 | 100 | 91 | 1.7 | 5.1 | CCCCCCCCCCCC(=O)NCCCC[C@H](NC(=O)[C@@H](NC(=O)[C@@H](NC(=O)[C@H](CCCCN)NC(=O)[C@@H](NC(=O)[C@H](CCC(N)=O)NC(=O)[C@@H](NC(=O)[C@H](CC(C)C)NC(=O)[C@H](Cc1c[nH]c2ccccc12)NC(=O)[C@H](CC(N)=O)NC(=O)[C@@H](NC(=O)[C@H](Cc1ccccc1)NC(=O)[C@H](CC(=O)O)NC(=O)[C@H](CCCNC(=N)N)NC(=O)[C@H](C)NC(=O)[C@H](C)NC(=O)[C@H](CC(C)C)NC(=O)[C@H](CC(N)=O)NC(=O)[C@H](CC(=O)O)NC(=O)[C@H](CC(C)C)NC(=O)[C@@H](NC(=O)[C@@H](NC(=O)[C@H](CO)NC(=O)[C@H](Cc1ccc(O)cc1)NC(=O)[C@H](CC(=O)O)NC(=O)[C@H](CO)NC(=O)[C@@H](NC(=O)[C@H](Cc1ccccc1)NC(=O)[C@@H](NC(=O)CNC(=O)[C@H](CC(=O)O)NC(=O)[C@H](C)NC(=O)[C@@H](N)Cc1c[nH]cn1)[C@@H](C)O)[C@@H](C)CC)[C@@H](C)O)[C@@H](C)CC)[C@@H](C)CC)[C@@H](C)CC)[C@@H](C)O)[C@@H](C)CC)[C@@H](C)O)C(=O)O [Co-agonist 32] |  |  | EC50 (human GIP receptor; [3]): 0.155 nM; EC50 (human GLP-2 receptor; EC50(nM), GLP-2 receptor, Table 2, cAMP, COS-7): 6.2 nM
9 | 81 | 57 | 8.5 | 1.2 | CCCCCCCCCCCCCCCC(=O)NCCCC[C@H](NC(=O)[C@@H](NC(=O)[C@H](CCC(N)=O)NC(=O)[C@@H](NC(=O)[C@H](CC(C)C)NC(=O)[C@H](Cc1c[nH]c2ccccc12)NC(=O)[C@H](CC(N)=O)NC(=O)[C@@H](NC(=O)[C@H](Cc1ccccc1)NC(=O)[C@H](CC(=O)O)NC(=O)[C@H](CCCNC(=N)N)NC(=O)[C@H](C)NC(=O)[C@H](C)NC(=O)[C@H](CC(C)C)NC(=O)[C@H](CC(N)=O)NC(=O)[C@H](CC(=O)O)NC(=O)[C@H](CC(C)C)NC(=O)[C@@H](NC(=O)[C@@H](NC(=O)[C@H](CO)NC(=O)[C@H](Cc1ccc(O)cc1)NC(=O)[C@H](CC(=O)O)NC(=O)[C@H](CO)NC(=O)[C@H](CO)NC(=O)[C@H](Cc1ccccc1)NC(=O)[C@@H](NC(=O)CNC(=O)[C@H](CC(=O)O)NC(=O)[C@H](C)NC(=O)[C@@H](N)Cc1c[nH]cn1)[C@@H](C)O)[C@@H](C)O)[C@@H](C)CC)[C@@H](C)CC)[C@@H](C)CC)[C@@H](C)O)C(=O)N[C@H](C(=O)N[C@H](C(=O)N[C@@H](CC(=O)O)C(=O)O)[C@@H](C)O)[C@@H](C)CC [Co-agonist 23] (H-HADGTFSSDYSTILDNLAARDFINWLIQTK(Palmitoyl)ITD-OH; N-terminus and C-terminus assumed) |  |  | EC50 (human GLP-2 receptor; [4]): 1.41 nM
10 | 100 | 82 | 3.6 | 11 | CCCCCCCCCCCCCCCC(=O)NCCCC[C@H](NC(=O)[C@@H](NC(=O)[C@@H](NC(=O)[C@H](CCCCN)NC(=O)[C@@H](NC(=O)[C@H](CCC(N)=O)NC(=O)[C@@H](NC(=O)[C@H](CC(C)C)NC(=O)[C@H](Cc1c[nH]c2ccccc12)NC(=O)[C@H](CC(N)=O)NC(=O)[C@@H](NC(=O)[C@H](Cc1ccccc1)NC(=O)[C@H](CC(=O)O)NC(=O)[C@H](CCCNC(=N)N)NC(=O)[C@H](C)NC(=O)[C@H](C)NC(=O)[C@H](CC(C)C)NC(=O)[C@H](CC(N)=O)NC(=O)[C@H](CC(=O)O)NC(=O)[C@H](CC(C)C)NC(=O)[C@@H](NC(=O)[C@@H](NC(=O)[C@H](CO)NC(=O)[C@H](Cc1ccc(O)cc1)NC(=O)[C@H](CC(=O)O)NC(=O)[C@H](CO)NC(=O)[C@@H](NC(=O)[C@H](Cc1ccccc1)NC(=O)[C@@H](NC(=O)CNC(=O)[C@H](CC(=O)O)NC(=O)[C@H](C)NC(=O)[C@@H](N)Cc1c[nH]cn1)[C@@H](C)O)[C@@H](C)CC)[C@@H](C)O)[C@@H](C)CC)[C@@H](C)CC)[C@@H](C)CC)[C@@H](C)O)[C@@H](C)CC)[C@@H](C)O)C(=O)O [Co-agonist 33] |  |  | EC50 (human GIP receptor; [3]): 0.316 nM; EC50 (human GLP-2 receptor; [4]): 12.9 nM
11 | 91 | 99 |  |  | HADGTFSSDYSTILDNLAARDFINWLIQTKITD [Co-agonist 13] | 135 | 9.2 | EC50 (human GIP receptor; [2]): 12 nM; EC50 (human GLP-2 receptor; [1]): 11.2 nM
12 | 100 | 73 | 7.1 | 30 | CCCCCCCCCCCC(=O)NCCCC[C@H](NC(=O)[C@@H](NC(=O)[C@H](CCC(N)=O)NC(=O)[C@@H](NC(=O)[C@H](CC(C)C)NC(=O)[C@H](Cc1c[nH]c2ccccc12)NC(=O)[C@H](CC(N)=O)NC(=O)[C@@H](NC(=O)[C@H](Cc1ccccc1)NC(=O)[C@H](CC(=O)O)NC(=O)[C@H](CCCNC(=N)N)NC(=O)[C@H](C)NC(=O)[C@H](C)NC(=O)[C@H](CC(C)C)NC(=O)[C@H](CC(N)=O)NC(=O)[C@H](CC(=O)O)NC(=O)[C@H](CC(C)C)NC(=O)[C@@H](NC(=O)[C@@H](NC(=O)[C@H](CO)NC(=O)[C@H](Cc1ccc(O)cc1)NC(=O)[C@H](CC(=O)O)NC(=O)[C@H](CO)NC(=O)[C@@H](NC(=O)[C@H](Cc1ccccc1)NC(=O)[C@@H](NC(=O)CNC(=O)[C@H](CC(=O)O)NC(=O)[C@H](C)NC(=O)[C@@H](N)Cc1c[nH]cn1)[C@@H](C)O)[C@@H](C)CC)[C@@H](C)O)[C@@H](C)CC)[C@@H](C)CC)[C@@H](C)CC)[C@@H](C)O)C(=O)N[C@H](C(=O)N[C@H](C(=O)N[C@@H](CCCCN)C(=O)O)[C@@H](C)O)[C@@H](C)CC [Co-agonist 30] |  |  | EC50 (human GLP-2 receptor; [4]): 36.3 nM
